Laboratory results as given in patent US20150141324A1 (priority 2011, published 2015).
Peptide text beside a SMILES is read from it. * marks the point of attachment. NH(4-amidinobenzyl) = N=C(N)c1ccc(CN*)cc1; Decanoyl = CCCCCCCCCC(=O)*; X2 = N=C(N)NC/C=C/CN*; CH2Cl = ClC*

Columns and labels:
[1] = test system: Escherichia coli O157:H7 Shiga toxin
furin = target: T1, furin (Homo sapiens, UniProt P09958); assay type: cell-based
T1 construct: endogenous in cells; host or cells: HEK293
T1 sequence (P09958 108-794): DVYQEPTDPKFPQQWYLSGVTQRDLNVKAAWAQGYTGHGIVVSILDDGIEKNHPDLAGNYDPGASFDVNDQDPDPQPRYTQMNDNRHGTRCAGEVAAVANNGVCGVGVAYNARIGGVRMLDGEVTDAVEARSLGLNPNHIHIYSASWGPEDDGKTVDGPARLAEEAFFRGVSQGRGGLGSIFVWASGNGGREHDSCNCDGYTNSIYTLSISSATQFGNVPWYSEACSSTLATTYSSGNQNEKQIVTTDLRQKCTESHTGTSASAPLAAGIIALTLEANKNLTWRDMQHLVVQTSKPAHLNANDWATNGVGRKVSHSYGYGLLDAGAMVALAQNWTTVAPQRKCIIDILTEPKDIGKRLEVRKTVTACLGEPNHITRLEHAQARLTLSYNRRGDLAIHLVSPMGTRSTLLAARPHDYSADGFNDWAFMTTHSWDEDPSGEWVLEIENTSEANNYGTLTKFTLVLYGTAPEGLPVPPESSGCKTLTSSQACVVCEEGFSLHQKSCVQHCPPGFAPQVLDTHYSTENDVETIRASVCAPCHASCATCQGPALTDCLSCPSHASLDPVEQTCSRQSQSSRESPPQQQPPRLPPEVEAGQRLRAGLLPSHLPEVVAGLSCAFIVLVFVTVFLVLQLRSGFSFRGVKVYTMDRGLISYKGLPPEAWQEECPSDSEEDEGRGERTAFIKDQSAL

Row | Compound | IC50 [1] | IC50 described in words [1] | potency against furin in cell fusion inhibition, compared to RxxT control peptide (furin)
1 | CC(=O)N[C@@H](CCCNC(=N)N)C(=O)N[C@@H](C)C(=O)N[C@@H](CCCNC(=N)N)C(=O)N[C@@H](CCCNC(=N)N)C(=O)N[C@@H](CCCNC(=N)N)C(=O)N[C@@H](CCCCN)C(=O)N[C@@H](CCCCN)C(=O)N[C@@H](CCCNC(=N)N)C(=O)N[C@H](C(N)=O)[C@@H](C)O [RxxT, Ac-R-A-R-R-R-K-K-R-T-NH2, reference compound] | > 1000 µM | – | –
2 | CC(=O)NN(CCCNC(=N)N)CC(=O)N[C@@H](C)C(=O)N[C@@H](CCCNC(=N)N)C(=O)N[C@@H](CCCNC(=N)N)C(=O)N[C@@H](CCCNC(=N)N)C(=O)N[C@@H](CCCCN)C(=O)N[C@@H](CCCCN)C(=O)NN(CCCNC(=N)N)CC(=O)N[C@H](C(N)=O)[C@@H](C)O [RxxT[Azaβ3R]^P1-P8] | 20.8 µM | similar | increased potency
3 | CCCCCCCCCC(=O)N[C@@H](CCCNC(=N)N)C(=O)N[C@H](C(=O)N[C@@H](CCCCN)C(=O)N[C@@H](CCCNC(=N)N)C(=O)CCl)[C@@H](C)O [DEC-RTKR-CMK, reference compound] (Decanoyl-RTKR-CH2Cl) | 11.5 µM | – | –
4 | CC(=O)N[C@@H](CCCNC(=N)N)C(=O)N[C@@H](C)C(=O)N[C@@H](CCCNC(=N)N)C(=O)N[C@@H](CCCNC(=N)N)C(=O)N[C@@H](CCCNC(=N)N)C(=O)N[C@@H](CCCCN)C(=O)N[C@@H](CCCCN)C(=O)NCc1ccc(C(=N)N)cc1 [Rxx[AMBA]^P1] (Ac-RARRRKK-{NH(4-amidinobenzyl)}) | > 1000 µM | – | –
5 | CC(=O)N[C@@H](CCCNC(=N)N)C(=O)N[C@@H](C)C(=O)N[C@@H](CCCNC(=N)N)C(=O)N[C@@H](CCCNC(=N)N)C(=O)N[C@@H](CCCNC(=N)N)C(=O)N[C@@H](CCCCN)C(=O)N[C@@H](CCCCN)C(=O)NN(CCCNC(=N)N)CC(=O)N[C@H](C(N)=O)[C@@H](C)O [RxxT[Azaβ3R]^P1] | 314 µM | low IC50 values | increased potency
6 | C[C@H](NC(=O)[C@H](CCCNC(=N)N)NC(=O)CCCCCCCN)C(=O)N[C@@H](CCCNC(=N)N)C(=O)N[C@@H](CCCNC(=N)N)C(=O)N[C@@H](CCCNC(=N)N)C(=O)N[C@@H](CCCCN)C(=O)N[C@@H](CCCCN)C(=O)NN(CCCNC(=N)N)CC(=O)N[C@H](C(N)=O)[C@@H](C)O [Aoc-RxxT[Azaβ3R]^P1] | 16.7 µM | similar | increased potency
7 | CC(=O)N[C@@H](CCCNC(=N)N)C(=O)N[C@@H](C)C(=O)N[C@@H](CCCNC(=N)N)C(=O)N[C@@H](CCCNC(=N)N)C(=O)N[C@@H](CCCNC(=N)N)C(=O)N[C@@H](CCCCN)C(=O)N[C@@H](CCCCN)C(=O)NC/C=C/CNC(=N)N [Rxx[ΔAR-CO2]^P1] (Ac-RARRRKK-X2; N-terminus and C-terminus assumed) | 71 µM | low IC50 values | increased potency
